Results published in patent publication US20130158362A1 (INFACARE PHARMACEUTICAL CORPORATION, priority 2011, published 2013).

What was measured:
[1] = Phase 2b trial: pharmacokinetics of stannsoporfin in plasma after IM injection; type: in vivo, human
Description: Pharmacokinetic Assessments: Subjects were stratified into 2 groups having different sampling times to better characterize the PK curves.

[2] = tested on: term and late preterm subjects with hyperbilirubinemia; test: Phase 2b trial: adverse events; type: in vivo, human
Description: Safety measurements included adverse events (AEs), hematology and chemistry laboratory tests, vital sign measurements, physical examinations, dermatological assessments, hearing assessments, ophthalmological assessments, neurological assessments, and quantitative electrocardiograms (ECGs).
Safety population: Defined as all subjects who were enrolled in the clinical study and received IMP. Subjects were summarized according to the treatment received.
Analysis of Safety Parameters: Descriptive statistical methods were used to summarize safety parameters based on the safety population. All treatment-emergent adverse events (TEAEs) were summarized. Tabular summaries were also presented for all TEAEs considered potentially related to the IMP, TEAEs by intensity, serious adverse events (SAEs), and AEs leading to discontinuation.

**Q.** Which T1/2 ([1]; 1.5 mg/kg IM) does the source give for “tin IV mesoporphyrin IX dichloride [Stannsoporfin]” here?
**A.** 5.46 h

**Q.** What about the Tmax ([1]; 1.5 mg/kg IM) of the same substance?
**A.** 1.87 h

**Q.** What about the T1/2 ([1]; 3.0 mg/kg IM) of the same substance?
**A.** 10.7 h

**Q.** And the Tmax ([1]; 3.0 mg/kg IM)?
**A.** 1.52 h

**Q.** And the T1/2 ([1]; 4.5 mg/kg IM)?
**A.** 9.86 h

**Q.** And the Tmax ([1]; 4.5 mg/kg IM)?
**A.** 2.3 h

**Q.** And the “T1/2, Mean of the three doses” value ([1]; 1.5, 3.0 and 4.5 mg/kg IM)?
**A.** 8.6 h

**Q.** What about the “Tmax, Mean of the three doses” value ([1]; 1.5, 3.0 and 4.5 mg/kg IM) of the same substance?
**A.** 1.89 h

**Q.** And the “increase in Cmax with dose” value ([1]; 1.5 to 4.5 mg/kg dose range)?
**A.** dose-proportional increase

**Q.** What about the elimination half-life ([1]; IM injection, final data) of the same substance?
**A.** approximately 10 hours

**Q.** And the “time of peak plasma concentrations post-treatment” value ([1]; IM injection, final data)?
**A.** ≤ 1 h

**Q.** What about the “time plasma stannsoporfin concentrations measurable post treatment” value ([1]; all subjects at doses of 3 mg/kg and above) of the same substance?
**A.** at least 48 hours

**Q.** What about the “intersubject variability in Cmax and AUCs” value ([1]; neonates, IM) of the same substance?
**A.** ≤ 30%

**Q.** And the “# of subjects one AE, n (%)” value ([2]; 1.5 mg/kg IM)?
**A.** 8 (47.1%)

**Q.** And the “AE Anal Abscess: subjects, n (%)” value ([2]; 1.5 mg/kg IM)?
**A.** 0

**Q.** And the “AE Anemia: subjects, n (%)” value ([2]; 1.5 mg/kg IM)?
**A.** 0

**Q.** And the “AE Bradycardia: subjects, n (%)” value ([2]; 1.5 mg/kg IM)?
**A.** 0

**Q.** What about the “AE CO2 decreased: subjects, n (%)” value ([2]; 1.5 mg/kg IM) of the same substance?
**A.** 0

**Q.** And the “AE CRP increased: subjects, n (%)” value ([2]; 1.5 mg/kg IM)?
**A.** 1 (5.9%)

**Q.** What about the “AE Contusion: subjects, n (%)” value ([2]; 1.5 mg/kg IM) of the same substance?
**A.** 1 (5.9%)

**Q.** And the “AE Depressed level consciousness: subjects, n (%)” value ([2]; 1.5 mg/kg IM)?
**A.** 0

**Q.** What about the “AE Diaper dermatitis: subjects, n (%)” value ([2]; 1.5 mg/kg IM) of the same substance?
**A.** 2 (11.8%)

**Q.** And the “AE Erythema toxicum: subjects, n (%)” value ([2]; 1.5 mg/kg IM)?
**A.** 0

**Q.** What about the “AE Erythema: subjects, n (%)” value ([2]; 1.5 mg/kg IM) of the same substance?
**A.** 0

**Q.** And the “AE Flushing: subjects, n (%)” value ([2]; 1.5 mg/kg IM)?
**A.** 0

**Q.** What about the “AE Hemangioma: subjects, n (%)” value ([2]; 1.5 mg/kg IM) of the same substance?
**A.** 1 (5.9%)

**Q.** And the “AE Hemoglobin increased: subjects, n (%)” value ([2]; 1.5 mg/kg IM)?
**A.** 0

**Q.** What about the “AE Hyperbilirubinemia: subjects, n (%)” value ([2]; 1.5 mg/kg IM) of the same substance?
**A.** 2 (11.8%)

**Q.** And the “AE Jaundice: subjects, n (%)” value ([2]; 1.5 mg/kg IM)?
**A.** 5 (29.4%)

**Q.** What about the “AE Leukocytosis: subjects, n (%)” value ([2]; 1.5 mg/kg IM) of the same substance?
**A.** 0

**Q.** And the “AE Meningitis: subjects, n (%)” value ([2]; 1.5 mg/kg IM)?
**A.** 0

**Q.** And the “AE Oral Candidiasis: subjects, n (%)” value ([2]; 1.5 mg/kg IM)?
**A.** 0

**Q.** What about the “AE Rash neonatal: subjects, n (%)” value ([2]; 1.5 mg/kg IM) of the same substance?
**A.** 0

**Q.** And the “AE Rash papular: subjects, n (%)” value ([2]; 1.5 mg/kg IM)?
**A.** 0

**Q.** And the “AE Rash: subjects, n (%)” value ([2]; 1.5 mg/kg IM)?
**A.** 1 (5.9%)

**Q.** What about the “AE Seborrhoeic dermatitis: subjects, n (%)” value ([2]; 1.5 mg/kg IM) of the same substance?
**A.** 0

**Q.** What about the “AE Serum Glucose decreased: subjects, n (%)” value ([2]; 1.5 mg/kg IM) of the same substance?
**A.** 0

**Q.** What about the “AE Serum sodium increased: subjects, n (%)” value ([2]; 1.5 mg/kg IM) of the same substance?
**A.** 0

**Q.** And the “AE Skin exfoliation: subjects, n (%)” value ([2]; 1.5 mg/kg IM)?
**A.** 1 (5.9%)

**Q.** What about the “AE Thrombocytopenia: subjects, n (%)” value ([2]; 1.5 mg/kg IM) of the same substance?
**A.** 0

**Q.** And the “AE Umbilical Hernia: subjects, n (%)” value ([2]; 1.5 mg/kg IM)?
**A.** 0

**Q.** What about the “AE Vomiting: subjects, n (%)” value ([2]; 1.5 mg/kg IM) of the same substance?
**A.** 0

**Q.** What about the “Total AEs” value ([2]; 1.5 mg/kg IM, N = 17) of the same substance?
**A.** 17

**Q.** And the “# of subjects one AE, n (%)” value ([2]; 3.0 mg/kg IM)?
**A.** 10 (55.6%)

**Q.** And the “AE Anal Abscess: subjects, n (%)” value ([2]; 3.0 mg/kg IM)?
**A.** 1 (5.6%)

**Q.** And the “AE Anemia: subjects, n (%)” value ([2]; 3.0 mg/kg IM)?
**A.** 1 (5.6%)

**Q.** And the “AE Bradycardia: subjects, n (%)” value ([2]; 3.0 mg/kg IM)?
**A.** 0

**Q.** And the “AE CO2 decreased: subjects, n (%)” value ([2]; 3.0 mg/kg IM)?
**A.** 1 (5.6%)

**Q.** And the “AE CRP increased: subjects, n (%)” value ([2]; 3.0 mg/kg IM)?
**A.** 0

**Q.** What about the “AE Contusion: subjects, n (%)” value ([2]; 3.0 mg/kg IM) of the same substance?
**A.** 0

**Q.** And the “AE Depressed level consciousness: subjects, n (%)” value ([2]; 3.0 mg/kg IM)?
**A.** 0

**Q.** What about the “AE Diaper dermatitis: subjects, n (%)” value ([2]; 3.0 mg/kg IM) of the same substance?
**A.** 1 (5.6%)

**Q.** And the “AE Erythema toxicum: subjects, n (%)” value ([2]; 3.0 mg/kg IM)?
**A.** 3 (16.7%)

**Q.** And the “AE Erythema: subjects, n (%)” value ([2]; 3.0 mg/kg IM)?
**A.** 1 (5.6%)

**Q.** And the “AE Flushing: subjects, n (%)” value ([2]; 3.0 mg/kg IM)?
**A.** 1 (5.6%)

**Q.** What about the “AE Hemangioma: subjects, n (%)” value ([2]; 3.0 mg/kg IM) of the same substance?
**A.** 0

**Q.** And the “AE Hemoglobin increased: subjects, n (%)” value ([2]; 3.0 mg/kg IM)?
**A.** 0

**Q.** And the “AE Hyperbilirubinemia: subjects, n (%)” value ([2]; 3.0 mg/kg IM)?
**A.** 1 (5.6%)

**Q.** What about the “AE Jaundice: subjects, n (%)” value ([2]; 3.0 mg/kg IM) of the same substance?
**A.** 0

**Q.** And the “AE Leukocytosis: subjects, n (%)” value ([2]; 3.0 mg/kg IM)?
**A.** 0

**Q.** And the “AE Meningitis: subjects, n (%)” value ([2]; 3.0 mg/kg IM)?
**A.** 0

**Q.** What about the “AE Oral Candidiasis: subjects, n (%)” value ([2]; 3.0 mg/kg IM) of the same substance?
**A.** 0

**Q.** What about the “AE Rash neonatal: subjects, n (%)” value ([2]; 3.0 mg/kg IM) of the same substance?
**A.** 1 (5.6%)

**Q.** And the “AE Rash papular: subjects, n (%)” value ([2]; 3.0 mg/kg IM)?
**A.** 0

**Q.** What about the “AE Rash: subjects, n (%)” value ([2]; 3.0 mg/kg IM) of the same substance?
**A.** 0

**Q.** What about the “AE Seborrhoeic dermatitis: subjects, n (%)” value ([2]; 3.0 mg/kg IM) of the same substance?
**A.** 1 (5.6%)

**Q.** What about the “AE Serum Glucose decreased: subjects, n (%)” value ([2]; 3.0 mg/kg IM) of the same substance?
**A.** 1 (5.6%)

**Q.** What about the “AE Serum sodium increased: subjects, n (%)” value ([2]; 3.0 mg/kg IM) of the same substance?
**A.** 1 (5.6%)
